The test system of the data set is CCRIS mutagenicity, Ames/micronucleus/aberration tests. Nature of the data set: CCRIS mutagenicity studies.
The mark [1] stands for this setting: Test System: AMES SALMONELLA TYPHIMURIUM, Strain/Indicator: TA98, Metabolic Activation: NONE, Method: PREINCUBATION
The mark [2] stands for this setting: Test System: AMES SALMONELLA TYPHIMURIUM, Strain/Indicator: TA100, Metabolic Activation: NONE, Method: PREINCUBATION

Activity calls are given as the source filed them. No rule for the calls is given here.

Consider `O=[N+]([O-])c1ccc(Cl)c([N+](=O)[O-])c1`, for which the mutagenic call is, setting by setting: (Test System: AMES SALMONELLA TYPHIMURIUM, Strain/Indicator: TA98(1,8-DNP6), Metabolic Activation: NONE, Method: PREINCUBATION) “active; positive”; (Test System: AMES SALMONELLA TYPHIMURIUM, Strain/Indicator: TA98(NR), Metabolic Activation: NONE, Method: PREINCUBATION) “active; positive”; under setting [1], “active; positive”; (Test System: AMES SALMONELLA TYPHIMURIUM, Strain/Indicator: TA98, Metabolic Activation: NONE, Method: STANDARD PLATE) “active; positive”; (Test System: AMES SALMONELLA TYPHIMURIUM, Strain/Indicator: TA98, Metabolic Activation: RAT LIVER S-9, AROCLOR 1254 (10%), Method: STANDARD PLATE) “active; positive”; (Test System: AMES SALMONELLA TYPHIMURIUM, Strain/Indicator: TA98, Metabolic Activation: RAT, LIVER, S-9, KANECHLOR 500, Method: PREINCUBATION) “active; positive”. The mutagenic call by setting is: (Test System: AMES SALMONELLA TYPHIMURIUM, Strain/Indicator: TA98NR/1,8-DNP6, Metabolic Activation: NONE, Method: STANDARD PLATE) “inactive; negative”; (Test System: AMES SALMONELLA TYPHIMURIUM, Strain/Indicator: TA98NR, Metabolic Activation: NONE, Method: STANDARD PLATE) “active; positive”; (Test System: AMES SALMONELLA TYPHIMURIUM, Strain/Indicator: TA100(NR), Metabolic Activation: NONE, Method: PREINCUBATION) “active; positive”; (Test System: AMES SALMONELLA TYPHIMURIUM, Strain/Indicator: TA100/GSH-, Metabolic Activation: NONE, Method: PREINCUBATION) “active; positive”; under setting [2], “active; positive”; (Test System: AMES SALMONELLA TYPHIMURIUM, Strain/Indicator: TA100, Metabolic Activation: NONE, Method: STANDARD PLATE) “active; positive”. Moreover, the mutagenic call was “inactive; negative” (Test System: AMES SALMONELLA TYPHIMURIUM, Strain/Indicator: TA100, Metabolic Activation: RAT, LIVER, S-9, KANECHLOR 500, Method: PREINCUBATION); “active; positive” (Test System: AMES SALMONELLA TYPHIMURIUM, Strain/Indicator: YG1021, Metabolic Activation: NONE, Method: STANDARD PLATE); “active; positive” (Test System: AMES SALMONELLA TYPHIMURIUM, Strain/Indicator: YG1024, Metabolic Activation: NONE, Method: STANDARD PLATE); “active; positive” (Test System: Ames Salmonella typhimurium, Strain/Indicator: TA98, Metabolic Activation: None, Method: Preincubation); “active; positive” (Test System: Ames Salmonella typhimurium, Strain/Indicator: TA98, Metabolic Activation: Rat, Liver, S9, Sodium phenobarbital and 5,6-benzoflavone (10%), Method: Preincubation); “active; positive” (Test System: Ames Salmonella typhimurium, Strain/Indicator: TA100, Metabolic Activation: None, Method: Preincubation). The mutagenic call was “active; positive” (Test System: Ames Salmonella typhimurium, Strain/Indicator: TA100, Metabolic Activation: Rat, Liver, S9, Sodium phenobarbital and 5,6-benzoflavone (10%), Method: Preincubation); “active; positive” (Test System: Ames Salmonella typhimurium, Strain/Indicator: TA1535, Metabolic Activation: None, Method: Preincubation); “active; positive” (Test System: Ames Salmonella typhimurium, Strain/Indicator: TA1535, Metabolic Activation: Rat, Liver, S9, Sodium phenobarbital and 5,6-benzoflavone (10%), Method: Preincubation); “active; positive” (Test System: Ames Salmonella typhimurium, Strain/Indicator: TA1537, Metabolic Activation: Rat, Liver, S9, Sodium phenobarbital and 5,6-benzoflavone (10%), Method: Preincubation).
In the case of `O.[Cu].[Cu]`, the mutagenic call runs as follows: under setting [1], “inactive; negative”; (Test System: AMES SALMONELLA TYPHIMURIUM, Strain/Indicator: TA98, Metabolic Activation: RAT, LIVER, S-9, KC 500, Method: PREINCUBATION) “inactive; negative”; under setting [2], “inactive; negative”; (Test System: AMES SALMONELLA TYPHIMURIUM, Strain/Indicator: TA100, Metabolic Activation: RAT, LIVER, S-9, KC 500, Method: PREINCUBATION) “inactive; negative”; (Test System: AMES SALMONELLA TYPHIMURIUM, Strain/Indicator: TA1535, Metabolic Activation: NONE, Method: PREINCUBATION) “inactive; negative”; (Test System: AMES SALMONELLA TYPHIMURIUM, Strain/Indicator: TA1535, Metabolic Activation: RAT, LIVER, S-9, KC 500, Method: PREINCUBATION) “inactive; negative”. Also, the mutagenic call is, setting by setting: (Test System: AMES SALMONELLA TYPHIMURIUM, Strain/Indicator: TA1537, Metabolic Activation: NONE, Method: PREINCUBATION) “inactive; negative”; (Test System: AMES SALMONELLA TYPHIMURIUM, Strain/Indicator: TA1537, Metabolic Activation: RAT, LIVER, S-9, KC 500, Method: PREINCUBATION) “inactive; negative”; (Test System: AMES SALMONELLA TYPHIMURIUM, Strain/Indicator: TA1538, Metabolic Activation: NONE, Method: PREINCUBATION) “inactive; negative”; (Test System: AMES SALMONELLA TYPHIMURIUM, Strain/Indicator: TA1538, Metabolic Activation: RAT, LIVER, S-9, KC 500, Method: PREINCUBATION) “inactive; negative”; (Test System: E. COLI, Strain/Indicator: WP2 UVRA, Metabolic Activation: NONE, Method: PREINCUBATION) “inactive; negative”; (Test System: E. COLI, Strain/Indicator: WP2 UVRA, Metabolic Activation: RAT, LIVER, S-9, KC 500, Method: PREINCUBATION) “inactive; negative”.

For the origin of these results see PubChem BioAssay AID1259407 (Chemical Carcinogenesis Research Information System (CCRIS), 2018).
